Test results reported in ChEMBL document CHEMBL3351379, “Dihydropyrrolo[2,3-d]pyrimidines: Selective Toll-Like Receptor 9 Antagonists from Scaffold Morphing Efforts” (ACS Med Chem Lett, 2014).
Values after ≈ are worked out from the molar mass of the structure shown.

Columns and labels:
Toll-like receptor 9 = target: T1, Toll-like receptor 9 (Homo sapiens, UniProt Q9NR96); test: Antagonist activity at human TLR9 transfected in HEK293 cells after 6 hrs by NF-kappaB luciferase reporter assay; assay type: cell-based
T1 sequence (Q9NR96 whole entry): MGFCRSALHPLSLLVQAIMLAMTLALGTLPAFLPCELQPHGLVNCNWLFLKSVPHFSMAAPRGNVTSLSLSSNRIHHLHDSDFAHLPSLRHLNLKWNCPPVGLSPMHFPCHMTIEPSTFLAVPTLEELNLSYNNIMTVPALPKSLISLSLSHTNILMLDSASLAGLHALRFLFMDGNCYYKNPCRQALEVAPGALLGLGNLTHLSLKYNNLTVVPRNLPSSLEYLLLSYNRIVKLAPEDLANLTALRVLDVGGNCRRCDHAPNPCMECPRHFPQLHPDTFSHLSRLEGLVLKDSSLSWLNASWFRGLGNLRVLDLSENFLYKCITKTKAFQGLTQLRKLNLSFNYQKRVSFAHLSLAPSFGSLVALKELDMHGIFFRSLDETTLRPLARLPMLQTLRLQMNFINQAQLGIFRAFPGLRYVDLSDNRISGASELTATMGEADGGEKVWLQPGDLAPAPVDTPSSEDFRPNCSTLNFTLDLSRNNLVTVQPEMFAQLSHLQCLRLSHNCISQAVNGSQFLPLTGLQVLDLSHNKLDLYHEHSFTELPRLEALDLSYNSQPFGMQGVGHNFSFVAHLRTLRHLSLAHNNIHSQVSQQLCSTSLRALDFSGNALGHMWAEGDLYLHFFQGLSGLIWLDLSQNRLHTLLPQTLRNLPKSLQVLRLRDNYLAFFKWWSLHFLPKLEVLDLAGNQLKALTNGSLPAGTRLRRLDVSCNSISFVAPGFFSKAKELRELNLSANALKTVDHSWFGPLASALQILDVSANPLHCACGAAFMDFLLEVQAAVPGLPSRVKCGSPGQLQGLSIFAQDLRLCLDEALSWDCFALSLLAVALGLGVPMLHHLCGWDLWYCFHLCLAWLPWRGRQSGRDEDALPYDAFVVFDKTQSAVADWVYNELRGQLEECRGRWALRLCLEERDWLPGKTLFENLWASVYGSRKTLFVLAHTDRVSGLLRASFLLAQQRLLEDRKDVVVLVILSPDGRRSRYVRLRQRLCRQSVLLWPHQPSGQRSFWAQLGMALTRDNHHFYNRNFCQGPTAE

HEK293 = test: Selectivity ratio of IC50 for human TLR7 transfected in HEK293 cells to IC50 for human TLR9 transfected in HEK293 cells; assay type: cell-based
Homo sapiens = species: Homo sapiens; test: Metabolic stability in human assessed per mg protein; assay type: ADME
[1] = Aqueous solubility of the compound at pH 7.4; assay type: physicochemical
Toll-like receptor 7 = target: T2, Toll-like receptor 7 (Homo sapiens, UniProt Q9NYK1); test: Antagonist activity at human TLR7 transfected in HEK293 cells assessed as hydrolysis of pNPP after 24 hrs by SEAP reporter assay; assay type: cell-based
T2 sequence (Q9NYK1 whole entry): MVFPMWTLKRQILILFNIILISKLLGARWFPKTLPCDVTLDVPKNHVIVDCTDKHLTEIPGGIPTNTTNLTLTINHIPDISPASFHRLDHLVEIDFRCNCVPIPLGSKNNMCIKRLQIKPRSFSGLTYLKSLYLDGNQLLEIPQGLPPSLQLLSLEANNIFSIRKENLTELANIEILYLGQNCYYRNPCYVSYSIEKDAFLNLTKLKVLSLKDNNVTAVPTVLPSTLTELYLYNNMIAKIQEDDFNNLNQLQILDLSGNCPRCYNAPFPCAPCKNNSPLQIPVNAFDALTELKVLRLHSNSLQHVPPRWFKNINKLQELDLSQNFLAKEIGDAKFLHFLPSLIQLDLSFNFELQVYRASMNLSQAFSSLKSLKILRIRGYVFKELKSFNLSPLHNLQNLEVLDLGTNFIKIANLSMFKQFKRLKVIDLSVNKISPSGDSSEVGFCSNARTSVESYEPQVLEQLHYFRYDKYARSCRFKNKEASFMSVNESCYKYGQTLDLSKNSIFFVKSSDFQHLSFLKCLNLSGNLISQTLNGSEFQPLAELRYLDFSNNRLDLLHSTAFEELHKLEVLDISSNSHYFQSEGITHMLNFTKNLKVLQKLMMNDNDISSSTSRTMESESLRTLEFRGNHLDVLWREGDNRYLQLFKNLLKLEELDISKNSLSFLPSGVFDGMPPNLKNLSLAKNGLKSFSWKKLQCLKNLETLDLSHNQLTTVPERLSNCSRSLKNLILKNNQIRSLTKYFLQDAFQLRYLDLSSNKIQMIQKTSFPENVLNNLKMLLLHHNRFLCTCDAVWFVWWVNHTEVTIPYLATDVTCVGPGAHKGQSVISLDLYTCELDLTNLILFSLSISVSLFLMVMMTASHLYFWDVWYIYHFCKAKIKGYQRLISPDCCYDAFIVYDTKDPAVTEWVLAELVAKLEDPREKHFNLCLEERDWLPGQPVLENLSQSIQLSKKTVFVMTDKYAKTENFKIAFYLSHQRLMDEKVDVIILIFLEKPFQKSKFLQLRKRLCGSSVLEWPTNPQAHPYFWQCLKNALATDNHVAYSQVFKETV

PBMC = test: Inhibition of CpG-induced IL-6 production in human PBMC after 24 hrs by ELISA; assay type: functional, cell-based
Toll-like receptor 8 = target: T3, Toll-like receptor 8 (Homo sapiens, UniProt Q9NR97); test: Antagonist activity at human TLR8 transfected in HEK293 cells after 6 hrs by NF-kappaB luciferase reporter assay; assay type: cell-based
T3 sequence (Q9NR97 whole entry): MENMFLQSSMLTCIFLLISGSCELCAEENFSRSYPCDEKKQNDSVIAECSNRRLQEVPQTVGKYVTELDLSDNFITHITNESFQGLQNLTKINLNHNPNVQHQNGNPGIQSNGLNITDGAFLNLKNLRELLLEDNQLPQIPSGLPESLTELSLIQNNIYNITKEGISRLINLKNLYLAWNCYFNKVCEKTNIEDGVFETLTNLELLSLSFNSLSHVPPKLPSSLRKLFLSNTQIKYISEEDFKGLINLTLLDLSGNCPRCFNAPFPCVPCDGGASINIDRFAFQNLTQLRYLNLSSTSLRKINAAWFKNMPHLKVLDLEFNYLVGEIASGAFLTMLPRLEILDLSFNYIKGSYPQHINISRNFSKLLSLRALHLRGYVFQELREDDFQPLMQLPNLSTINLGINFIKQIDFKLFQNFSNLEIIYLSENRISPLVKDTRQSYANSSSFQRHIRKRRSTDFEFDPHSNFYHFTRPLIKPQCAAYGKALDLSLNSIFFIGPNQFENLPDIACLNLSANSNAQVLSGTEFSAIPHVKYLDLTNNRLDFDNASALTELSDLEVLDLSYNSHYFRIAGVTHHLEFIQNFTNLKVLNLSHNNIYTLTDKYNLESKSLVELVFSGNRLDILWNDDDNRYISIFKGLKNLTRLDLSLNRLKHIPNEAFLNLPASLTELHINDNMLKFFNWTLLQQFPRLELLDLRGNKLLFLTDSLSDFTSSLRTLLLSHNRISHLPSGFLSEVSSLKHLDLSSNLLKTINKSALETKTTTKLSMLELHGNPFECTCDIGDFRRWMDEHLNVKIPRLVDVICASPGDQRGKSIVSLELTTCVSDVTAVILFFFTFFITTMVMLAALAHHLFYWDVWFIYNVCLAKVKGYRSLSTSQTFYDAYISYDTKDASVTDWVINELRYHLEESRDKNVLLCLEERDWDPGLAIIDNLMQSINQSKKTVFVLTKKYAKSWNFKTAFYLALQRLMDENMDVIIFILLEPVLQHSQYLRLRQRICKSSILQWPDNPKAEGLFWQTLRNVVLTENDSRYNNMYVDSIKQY

Mus musculus [2] = test: Inhibition of IL-6 production in iv dosed C57BL/6 mouse plasma compound administered 1 hr prior to CpG1826 treatment measured after 2 hrs by ELISA; assay type: functional; settings: C57BL/6, Plasma
Splenocyte = test: Inhibition of CpG-induced IL-6 production in C57BL/6 mouse splenocytes after 24 hrs by ELISA; assay type: functional, cell-based; settings: C57BL/6, Splenocyte
Mus musculus [3] = test: Inhibition of IL-6 production in iv dosed C57BL/6 mouse peritoneal lavage fluid compound administered 1 hr prior to CpG1826 treatment measured after 2 hrs by ELISA; assay type: functional, organism-based

Row | IC50 (Toll-like receptor 9) | Structure (SMILES) | further results
1 | 73 nM | CN1CCN(c2ccc(-c3ncc4c(n3)N(CCN3CCOCC3)CC4)cc2)CC1 | 
2 | 27 nM | CN1CCN(c2ccc(-c3nc4c(c(NCCN5CCOCC5)n3)CCCC4)cc2)CC1 | Ratio IC50 (HEK293): 71
3 | 16 nM | Cc1nc(-c2ccc(N3CCN(C)CC3)cc2)nc2c1CCN2CCCN1CCOCC1 | Stability (Homo sapiens): < 10 µL/min/mg
4 | 190 nM | CN1CCN(c2ccc(-c3nccc(NCCN4CCOCC4)n3)cc2)CC1 | 
5 | 56 nM | CN1CCN(c2ccccc2-c2ncc3c(n2)N(CCCN2CCOCC2)CC3)CC1 | 
6 | 56 nM | CN1CCN(c2cccc(-c3ncc4c(n3)N(CCCN3CCOCC3)CC4)c2)CC1 | 
7 | 120 nM | COc1nc(-c2ccc(N3CCN(C)CC3)cc2)nc2c1CCN2CCCN1CCCC1 | 
8 | > 1000 nM | CN1CCN(c2ccc(-c3ncc4c(n3)N(CCCN3CCOCC3)CC4)cc2)C(=O)C1 | 
9 | 84 nM | CN1CCN(c2ccc(-c3nc(Cl)c4c(n3)N(CCCN3CCCC3)CC4)cc2)CC1 | 
10 | 4.6 nM | COc1cc2nc(-c3ccc(N4CCN(C)CC4)cc3)nc(NCCN3CCOCC3)c2cc1OC | solubility [1]: 120 µg/mL (≈ 244 µM)
11 | 190 nM | CN1CCN(c2ccc(-c3nc4c(c(NCCN5CCOCC5)n3)COCC4)cc2)CC1 | 
12 | 120 nM | Cc1cnc(-c2ccc(N3CCN(C)CC3)cc2)nc1NCCN1CCOCC1 | 
13 | 13 nM | OCCN1CCN(c2ccc(-c3ncc4c(n3)N(CCCN3CCOCC3)CC4)cc2)CC1 | IC50 (Toll-like receptor 7): 970 nM; IC50 (PBMC): 244 nM; solubility [1]: > 10000 µg/mL; IC50 (Toll-like receptor 8): > 10000 nM; Ratio IC50 (HEK293): 75; ED50 (Mus musculus [2]): 0.8 mg/kg; IC50 (Splenocyte): 74 nM; inhibition (Mus musculus [3]): Dose-dependent effect
14 | 3.5 nM | Cc1nc(-c2ccc(N3CCN(C)CC3)cc2)nc2c1CCN2CCCN1CCCC1 | Stability (Homo sapiens): 35 µL/min/mg
15 | 35 nM | Cc1nc(-c2ccc(N3CCN(C)CC3)cc2)nc(NCCN2CCOCC2)c1C | Stability (Homo sapiens): 69 µL/min/mg
16 | 3.9 nM | CN1CCN(c2ccc(-c3ncc4c(n3)N(CCCN3CCCC3)CC4)cc2)CC1 | Stability (Homo sapiens): 71 µL/min/mg
17 | 28 nM | COCCN1CCN(c2ccc(-c3ncc4c(n3)N(CCCN3CCOCC3)CC4)cc2)CC1 | 
18 | 73 nM | CN1CCN(c2ccc(-c3nc(N(C)C)c4c(n3)N(CCCN3CCCC3)CC4)cc2)CC1 | 
19 | 11 nM | CN1CCN(c2ccc(-c3ncc4c(n3)N(CCCCN3CCOCC3)CC4)cc2)CC1 | 
20 | 20 nM | Cc1nc(-c2ccc(N3CCN(C)CC3)cc2)nc2c1CCN2CCN1CCOCC1 | Ratio IC50 (HEK293): 93; Stability (Homo sapiens): < 10 µL/min/mg
21 | 11 nM | Cc1nc(-c2ccc(N3CCN(C)CC3)cc2)nc2c1CCN2CCN1CCCC1 | 
22 | 8.6 nM | CN1CCN(c2ccc(-c3ncc4c(n3)N(CCCN3CCOCC3)CC4)cc2)CC1 | solubility [1]: 1100 µg/mL (≈ 2600 µM); Ratio IC50 (HEK293): > 50
